Our source for the IC50 values is patent US5786361A, “Pyridazino-, pyrimido-, pyrazino- and triazinoindoles, -pyrrolocycloalkenes or pyrrolooxocycloalkenes, or pyridopyrrolylpyrido compounds, compositions containing them, and use thereof to treat atherosclerosis” (Bayer Aktiengesellschaft, priority 1997, dated 1998).

In this assay the test system is HepG2 cells. In words: Inhibition of the release of ApoB-100-associated lipoproteins from liver cells (HepG2), immunoassay. Format: cell-based. The following applies: Homo sapiens; HepG2 culture supernatant; light adsorption at 450 nm vs solvent control; release of ApoB-100-associated particles. The method, then: 1. Inhibition of the release of ApoB-100-associated lipoproteins
The test for detecting the inhibition of the release of ApoB-100-associatedlipoproteins from liver cells was carried out in vitro using cultured liver cells, preferably using cells of the human line HepG2. These cells are cultured under standard conditions in medium for the culture of eucaryotic cells, preferably in RPMI 1640 with 10% foetal calf serum. HepG2 cells synthesize and secrete into the culture supernatant ApoB-100-associated lipoprotein particles which in principle are constructed similarly to the VLDL and LDL particles which are to be found in the plasma.
These particles can be detected using an immunoassay for human LDL. This immunoassay is carried out using antibodies which have been induced in rabbits against human LDL under standard conditions. The anti-LDL antibodies (rabbit anti-LDL-Ab) were purified by affinity chromatography on an immunosorbent using human LDL. These purified rabbit anti-LDL-Ab are adsorbed on the surface of plastic. Expediently, this adsorption takes place on the plastic surface of microtitre plates having 96 depressions, preferably on MaxiSorp plates. If ApoB-100-associated particles are present in the supernatant of Hep-G2 cells, these can bind to the insolubilized rabbit anti-LDL-Abs, and an imunune complex results which is bound to the plastic surface. Unbound proteins are removed by washing. The immune complex on the plastic surface is detected using monoclonal antibodies which have been induced against human LDL under standard conditions and purified. These antibodies were conjugated to the enzyme peroxidase. Peroxidase converts the colourless substrate TMB into a coloured product in the presence of H2 O2. After acidification of the reaction mixture with H2 SO4, the specific light adsorption at 450 nm is determined, which is a measure of the amount of ApoB-100-associated particles which have been secreted into the culture supernatant by the HepG2 cells.
The IC50 value indicates at which substance concentration the light adsorption is inhibited by 50% in comparison with the control (solvent control without substance).

`Cn1c(=O)c2c(c3ccccc3n2Cc2ccc([C@@H](C(=O)N[C@@H](CO)c3ccccc3)C3CCCC3)cc2)n(C)c1=O` (mixture of isomers) [Example 2, 2-(R)- and 2-(S)-2-Cyclopentyl-2-(4-{1,3-dimethyl-1,5-dihydro-2,4-oxo-pyrimido-[5,4-b]indol-5-yl-methyl}phenyl)-aceticacidN-(2-hydroxy-1-(R)-1-phenyl-ethyl)amide]: the IC50 was found to be 1.1 nM.
Compound `Cc1nc(C)c2c3ccccc3n(Cc3ccc([C@@H](C(=O)N[C@@H](CO)c4ccccc4)C4CCCC4)cc3)c2n1` [Example 6] displayed an IC50 of 0.8 nM.
The compound `Cc1nc(C)c2c3ccccc3n(Cc3ccc(C(C(=O)NCc4ccncc4)C4CCCC4)cc3)c2n1` (centres unmarked) [Example 10] registered an IC50 of 1 nM.
`Cn1c(=O)c2c3ccccc3n(Cc3ccc([C@H](C(=O)N[C@@H](CO)c4ccccc4)C4CCCC4)cc3)c2c(=O)n1C` [Example 16]: the IC50 was found to be 8.9 nM.
As to `CSc1nnc2c3ccccc3n(Cc3ccc(C(C(=O)N[C@@H](CO)c4ccccc4)C4CCCC4)cc3)c2n1` (some centres unmarked) [Example 26], the IC50 turned out to be 1.8 nM.

As usually defined, the IC50 is the concentration that inhibits the measured activity by half.
